Test results as given in patent publication US10822309B2, “Crystalline form of Eluxadoline” (priority 2017, dated 2020).

Experiment: PXRD studies of capped and uncapped samples after storage in stability chambers (polymorphic stability)
Assay type: physicochemical
Description: Eluxadoline Form APO-I can be characterized by a PXRD diffractogram comprising, among other peaks, characteristic peaks, expressed in degrees 2θ (±0.2°), at 6.4°, 6.9° and 11.4°. Preferably, the PXRD diffractogram further comprises at least three peaks, expressed in degrees 2θ (±0.2°), selected from the group consisting of 8.7°, 9.9°, 12.7°, 14.8°, 15.8°, 17.5°, 18.9°, 19.8° and 23.8°. More preferably, the PXRD diffractogram further comprises peaks, expressed in degrees 2θ (±0.2°), at 8.7°, 9.9°, 12.7°, 14.8°, 15.8°, 17.5°, 18.9°, 19.8° and 23.8°. PXRD studies of capped and uncapped samples of Eluxadoline Form APO-I have shown that this crystal form is stable following storage in stability chambers maintained at 27° C./60% RH and 40° C./75% RH for at least 10 days.
PXRD diffractograms were recorded on a Bruker D8 Discover powder X-ray diffractometer (Bruker-AXS, Karlsruhe, Germany). The generator was a Micro-focus X-ray source (IMSTube: Cu tube with 1.54184 A) with a voltage of 50 kV and current of 1.00 mA, using a divergence slit of 0.3 mm and collimator of 0.3 mm. For each sample, one frame was collected using a still scan with a Pilatus 3R-100 kA detector at the distance of 154.72 mm from the sample. Raw data were evaluated using the program EVA (Bruker-AXS, Karlsruhe, Germany).

For `COc1ccc(CN(C(=O)[C@@H](N)Cc2c(C)cc(C(N)=O)cc2C)[C@@H](C)c2nc(-c3ccccc3)c[nH]2)cc1C(=O)O` [Eluxadoline Form APO-I, 5-({[(2S)-2-amino-3-(4-carbamoyl-2,6-dimethylphenyl)propionyl]-[(1S)-1-(4-phenyl-1H-imidazol-2-yl)ethyl]amino}-methyl)-2-methoxybenzoic acid], the “crystal form stable following storage (PXRD)” value (stability chamber 27° C./60% RH) was “at least 10 days” and the “crystal form stable / resists polymorph conversion following storage (PXRD)” value (stability chamber 40° C./75% RH) was “at least 10 days”.
